Assay results taken from patent publication US7846970B2, “Hydroxycitric acid derivatives and skin external preparations containing the same” (Showa Denko K.K., priority 2004, dated 2010).

Columns and labels:
Mouse 3T3-F442A cells [1] = test: Triglyceride accumulation test (3): lowest concentration at which TG/cell survival ratio is not more than 80; format: cell-based; conditions: lowest tested concentration with TG/cell survival ratio not more than 80 (control 100); 4 days
Protocol: Likewise in Test Example 2, mouse 3T3-F442A cells (available from DAINIPPON PHARMACEUTICAL CO., LTD.) were disseminated on a 96-well microplate and were incubated at 37° C. and 5% CO2 over a period of 2 weeks using a DMEM culture medium (available from Invitrogen) containing 10% by mass of FCS.
After differentiation of most cells into adipocytes had been observed with a microscope, the culture medium was replaced with one that contained any one of the test articles (a), (b) and (d) to (h) in an amount of 40 μM, 50 μM, 100 μM, 150 μM, 200 μM, 300 μM, 400 μM, 500 μM or […]. The incubation was continued for another 4 days. The control was incubated using a culture medium that contained no test articles.
After 4 days of incubation, the cells were washed three times with Dulbecco's PBS (−). The triglyceride accumulated in the cells, and the cell survival rate were measured in similar manners as in Test Example 3.

[2] = test system: Human white preadipocytes; test: Cell survival rate, alamar blue (Test Example 3); format: cell-based; conditions: 4 days
Protocol: (§1) After differentiation of most cells into adipocytes had been observed with a microscope, the culture medium was replaced with one that contained 100 μM or 1 mM of the test article (a), or 10 μM, 25 μM or 50 μM of the test article (b). The incubation was continued for another 4 days. The control was incubated using a culture medium that contained no test articles.
(§2) After 4 days of incubation, the cells were washed three times with Dulbecco's PBS (−). The triglyceride accumulated in the cells was determined by oil red staining. The cell survival rate was measured by a calorimetric method (570 nm) using alamar blue reagent (manufactured by Molecular Probe).

[3] = Skin permeation test (Test Example 1); format: in vitro ADME, minipig
Protocol: The above test articles, each 0.5% by mass, were dissolved separately in Dulbecco's PBS (−).
2-cm square skin pieces of minipig (Charles River Laboratories Inc. (United States of America)) were placed in the Netwell (manufactured by Corning Incorporated), and assay rings (Teflon® rings with a center opening) on which a silicon sealant had been applied were pressed and fixed to the epidermis of the skin. Subsequently, 2 ml of a skin culture medium (TOYOBO CO., LTD.) was added to a multiwell plate, and the Netwell was set such that skin lower portions would be soaked. Each of the test article solutions, 0.1 ml, was slowly poured into the opening of assay ring; when no leakage was confirmed, the units were sealed with multiplate seals and were allowed to stand in an incubator at 37° C. and 5% carbon dioxide.
After 4 hours, the test article solutions on the skin pieces were pipetted. The skin pieces were recovered from the Netwell, and distilled water in a washing bottle was poured thereover for washing. The assay rings were detached, and the central portions that had contacted with the solution were punched out with an 8 mm biopsy punch. The excised skin pieces were transferred to 1.5 ml tubes, and 1 ml of 0.5% trypsin solution was added to each tube. The trypsin solution was caused to permeate the skin piece for a day and a night at 4° C.
Next day, the trypsin solution was removed, and the skin pieces were washed three times each with 1 ml of distilled water and were heated in an incubator at 37° C. for 5 minutes, resulting in release of the epidermis. The epidermis that had been released and been floating was peeled with tweezers to separate the skin piece into the epidermis and the dermis. The epidermis and dermis were separately transferred to new 1.5 ml tubes and were heated in an incubator at 37° C. for 30 minutes.
Thereafter, the epidermis and the dermis were fed with 0.1 ml and 0.5 ml of distilled water, respectively, followed by freezing and thawing. […] Thus, a tissue extract was obtained.
400 μl of the reagent 4 was added to a sample tube containing 20 μl of the sample solution or the standard sample solution, followed by mixing. The mixture was allowed to stand at room temperature for at least 15 minutes. Thereafter, 40 μl of the reagent 3 was added and mixed together, and the mixture was allowed to stand at room temperature for at least 30 minutes. The absorbance at 750 nm was measured with a spectrophotometer, and the protein concentration in the sample solution was determined using a calibration curve obtained with the standard sample.

Mouse 3T3-F442A cells [4] = test: Triglyceride accumulation test (1), oil red staining; format: cell-based; conditions: 100 μM, 4 days, differentiated 3T3-F442A adipocytes
Protocol: Mouse 3T3-F442A cells (available from DAINIPPON PHARMACEUTICAL CO., LTD.) were disseminated on a 96-well microplate and were incubated at 37° C. and 5% CO2 over a period of 2 weeks using a DMEM culture medium (available from Invitrogen) containing 10% by mass of FCS.
as §1, with “of any one” for “or 1 mM”, “articles (a) to (c).” for “article (a), or 10 μM, 25 μM or 50 μM of the test article (b).”
After 4 days of incubation, the cells were washed three times with Dulbecco's PBS (−). The triglyceride accumulated in the cells was determined by oil red staining.

[5] = test system: Human white preadipocytes; test: Test for confirmation of breakdown of hydroxycitric acid derivative (amounts in cell extract, LC/MS); conditions: 1 mM test article, 5 days, human adipocytes
Protocol: (§4) Human white preadipocytes (available from Zen-Bio Inc.) were disseminated in two T-25 flasks and were incubated at 37° C. and 5% CO2 using a white preadipocyte culture medium (PM-1, available from Zen-Bio Inc.). After several days, microscopic observation confirmed that the cells had been confluent, and the medium was replaced with a human white preadipocyte differentiation medium (DM-1, available from Zen-Bio Inc.). After three days, the differentiation medium was changed to a white adipocyte medium (AM-1, available from Zen-Bio Inc.). Incubation was continued while renewing half of the white adipocyte medium every three days.
(§5) After differentiation into adipocytes had been observed, the culture media in the flasks were each replaced with one that contained 1 mM of the test article (a) or 0.05 mM of the test article (b). The incubation was continued for another 5 days.
(§6) After 5 days of incubation, the cells were released from the flask bottom by adding trypsin and were collected by centrifugation (at 1,000 rpm for 5 minutes). The cells collected were washed two times with Dulbecco's PBS (−), and were transferred to 1.5 ml tubes, followed by freezing and thawing. […]
(§7) The test article in the extract was determined by LC/MS, and the protein in the extract was determined by the Lowry method as described in Test Example 1.

[6] = test system: Human white preadipocytes; test: Triglyceride accumulation test (2), oil red staining; format: cell-based; conditions: 4 days
Protocol: as §1, §2

[7] = test system: Human white preadipocytes; test: Test (2) of use in combination with caffeine and the like, triglyceride accumulation; format: cell-based; conditions: 50 μM, 4 days
Protocol: (§3) After differentiation into adipocytes had been observed, the culture medium was replaced with one that contained 50 μM of (b), or 100 μM of (i), or 50 μM of (j), or 50 μM and 100 μM of (b) and (i) respectively, or 50 μM and 50 μM of (b) and (j) respectively. The incubation was continued for another 4 days. The control was incubated using a culture medium that contained no test articles.

Mouse 3T3-F442A cells [8] = test: Test (1) of use in combination with caffeine, triglyceride accumulation; format: cell-based; conditions: 0.05 mM (b) alone, which is the control (100%); 4 days
Protocol: Mouse 3T3-F442A cells were incubated in a similar manner as in Test Example 2. After differentiation into adipocytes had been observed, the culture medium was replaced with one that contained 0.05 mM and 0.1 mM of the test article (b) and the test article (i), respectively. The incubation was continued for another 4 days. The control was incubated using a culture medium that contained 0.05 mM of the test article (b).
After 4 days of incubation, the triglyceride accumulated in the cells was determined in a similar manner as in Test Example 2.

[9] = test system: Human white preadipocytes
Protocol: as §4, §5, §6, §7

[10] = test system: Human white preadipocytes; test: Cell survival rate (Test Example 6); format: cell-based; conditions: 4 days, 50 μM
Protocol: as §3

[11] = dermis, test article 0.5% by mass in Dulbecco's PBS (-), 0.1 ml, 4 hours, 37°C
[12] = epidermis, test article 0.5% by mass in Dulbecco's PBS (-), 0.1 ml, 4 hours, 37°C

Hydroxycitric acid-2-myristate sodium salt [(g)]
Concentration for 20% reduction of TG amount relative to control (Mouse 3T3-F442A cells [1]): 100 µM

Hydroxycitric acid calcium salt [(a), reference compound]
Cell survival rate (% relative to control): 2 ([2]; 100 μM): 88 % relative to control | Cell survival rate (% relative to control): 2 ([2]; 1 mM): 94 % relative to control | Concentration for 20% reduction of TG amount relative to control (Mouse 3T3-F442A cells [1]): 1e+06 µM | Determined value: amount of hydroxycitric acid in dermis [3, 11]: 0.2 nmol/mg skin protein | Determined value: amount of hydroxycitric acid in epidermis [3, 12]: 0.4 nmol/mg skin protein | Accumulated triglyceride amount (% relative to control) (Mouse 3T3-F442A cells [4]): 98 % relative to control | Determined value: amount of hydroxycitric acid in cell extract [5]: 0.6 nmol/mg protein | (1/2) × 100 (triglyceride amount / cell survival rate) ([6]; 100 μM): 98 | Accumulated triglyceride amount (% relative to control): 1 ([6]; 100 μM): 86 % relative to control | (1/2) × 100 (triglyceride amount / cell survival rate) ([6]; 1 mM): 85 | Accumulated triglyceride amount (% relative to control): 1 ([6]; 1 mM): 80 % relative to control

Hydroxycitric acid monomethyl ester-2-palmitate sodium salt [(c)]
Accumulated triglyceride amount (% relative to control) (Mouse 3T3-F442A cells [4]): 84 % relative to control

Hydroxycitric acid-2-palmitate sodium salt [(b)]
Cell survival rate (% relative to control): 2 ([2]; 10 μM): 100 % relative to control | Cell survival rate (% relative to control): 2 ([2]; 25 μM): 101 % relative to control | Cell survival rate (% relative to control): 2 ([2]; 50 μM): 98 % relative to control | Concentration for 20% reduction of TG amount relative to control (Mouse 3T3-F442A cells [1]): 50 µM | (1/2) × 100 (triglyceride amount / cell survival rate) [7]: 75 | Accumulated triglyceride amount (% relative to control): 1 [7]: 75 % relative to control | Accumulated triglyceride amount (% relative to control) (Mouse 3T3-F442A cells [8]): 100 % relative to control | Determined value: amount of hydroxycitric acid-2-palmitate in dermis [3, 11]: 3.8 nmol/mg skin protein | Determined value: amount of hydroxycitric acid-2-palmitate in epidermis [3, 12]: 3.4 nmol/mg skin protein | Skin permeation (in words) ([3]; minipig skin, compared with (a)): can permeate the skin deeper into the dermis layer than hydroxycitric acid calcium salt (a) | Accumulated triglyceride amount (% relative to control) (Mouse 3T3-F442A cells [4]): 52 % relative to control | (1/2) × 100 (triglyceride amount / cell survival rate) ([6]; 10 μM): 78 | Accumulated triglyceride amount (% relative to control): 1 ([6]; 10 μM): 78 % relative to control | (1/2) × 100 (triglyceride amount / cell survival rate) ([6]; 25 μM): 71 | Accumulated triglyceride amount (% relative to control): 1 ([6]; 25 μM): 72 % relative to control | (1/2) × 100 (triglyceride amount / cell survival rate) ([6]; 50 μM): 66 | Accumulated triglyceride amount (% relative to control): 1 ([6]; 50 μM): 65 % relative to control

CCCCCCCCCCCCCCCC(=O)OC(CC(=O)O)(C(=O)O)C(O)C(=O)O (centres unmarked) [hydroxycitric acid-2-palmitate]
Breakdown within adipocytes (in words) [9]: broken down within adipocytes to generate hydroxycitric acid

Hydroxycitric acid-2-caprate sodium salt [(e)]
Concentration for 20% reduction of TG amount relative to control (Mouse 3T3-F442A cells [1]): 200 µM

Hydroxycitric acid-2-octanoate sodium salt [(d)]
Concentration for 20% reduction of TG amount relative to control (Mouse 3T3-F442A cells [1]): 200 µM

Hydroxycitric acid-2-behenate sodium salt [(h)]
Concentration for 20% reduction of TG amount relative to control (Mouse 3T3-F442A cells [1]): 40 µM

Hydroxycitric acid-2-laurate sodium salt [(f)]
Concentration for 20% reduction of TG amount relative to control (Mouse 3T3-F442A cells [1]): 150 µM

C[N+](C)(C)C[C@H](O)CC(=O)[O-].Cl [(j), L-carnitine hydrochloride, reference compound]
(1/2) × 100 (triglyceride amount / cell survival rate) [7]: 91 | Accumulated triglyceride amount (% relative to control): 1 [7]: 93 % relative to control | Cell survival rate (% relative to control): 2 [10]: 102 % relative to control
